Our source for the IC50 values is patent publication US9085576B2 (AMGEN INC., priority 2013, dated 2015).

By IC50 is commonly meant the concentration at which inhibition is half-maximal.

The target in experiment [1] is Beta Secretase enzyme (BACE) (Homo sapiens (Human), UniProt P56817). Description: In vitro enzymatic BACE FRET assay. The experiment is classed as biochemical. The settings on record: read-out: BACE1 Enzyme assay IC50.
For a further experiment, the target named is BACE (Homo sapiens (Human), UniProt P56817). Briefly: In vitro BACE cell-based assay (Aβ40 in conditioned medium, sandwich ELISA).
A further experiment concerns the target Cathepsin D (Cat D) (Homo sapiens (Human), UniProt P07339). Briefly: In vitro enzymatic Cathepsin D (Cat D) FRET assay. The experiment is classed as biochemical. The settings on record: read-out: CatD IC50.

Bounds are passed on as bounds.

Sequence of Cathepsin D (Cat D) (P07339 65-412, species assumed): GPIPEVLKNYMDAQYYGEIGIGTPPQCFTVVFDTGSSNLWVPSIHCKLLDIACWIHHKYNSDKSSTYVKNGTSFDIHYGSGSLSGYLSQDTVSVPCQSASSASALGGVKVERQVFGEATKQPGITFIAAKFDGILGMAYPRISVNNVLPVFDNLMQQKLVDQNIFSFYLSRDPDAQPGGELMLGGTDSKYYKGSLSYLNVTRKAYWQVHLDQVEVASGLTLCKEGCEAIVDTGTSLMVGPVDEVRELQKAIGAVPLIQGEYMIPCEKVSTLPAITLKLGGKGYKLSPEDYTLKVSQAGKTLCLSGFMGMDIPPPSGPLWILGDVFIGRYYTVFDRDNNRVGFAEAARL
Sequence of BACE (P56817 46-501, species assumed): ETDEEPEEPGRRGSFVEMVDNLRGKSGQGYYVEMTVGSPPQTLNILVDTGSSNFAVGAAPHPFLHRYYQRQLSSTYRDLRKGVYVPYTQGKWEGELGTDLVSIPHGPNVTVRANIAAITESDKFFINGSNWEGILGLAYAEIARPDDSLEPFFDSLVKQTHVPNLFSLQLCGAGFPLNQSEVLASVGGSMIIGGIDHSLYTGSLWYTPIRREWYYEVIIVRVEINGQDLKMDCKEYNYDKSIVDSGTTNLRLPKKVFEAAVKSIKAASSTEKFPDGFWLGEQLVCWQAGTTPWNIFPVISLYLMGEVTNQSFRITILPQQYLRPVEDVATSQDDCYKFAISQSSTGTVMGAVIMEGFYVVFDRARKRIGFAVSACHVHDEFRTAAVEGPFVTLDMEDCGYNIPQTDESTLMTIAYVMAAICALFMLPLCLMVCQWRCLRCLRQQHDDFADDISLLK
Sequence of Beta Secretase enzyme (BACE) (P56817 46-501): as the sequence (P56817 46-501, species assumed) above

`NC1=N[C@](c2cc(NC(=O)c3ccc(Cl)cn3)ccc2Cl)(C(F)F)[C@@H]2C[C@@H]2O1` [Example 92, N-(3-((1S,5R,6S)-3-amino-5-(difluoromethyl)-2-oxa-4-azabicyclo[4.1.0]hept-3-en-5-yl)-4-chlorophenyl)-5-chloropicolinamide]: the results for the IC50 (in experiment [1]; at BACE; on Cathepsin D (Cat D)) were 17.1 µM, greater than 15.6 µM and 770 µM, respectively.

In the case of `COc1ccc(C(=O)Nc2ccc(Cl)c([C@@]3(C(F)F)N=C(N)O[C@@H]4C[C@@H]43)c2)nc1` [Example 100, N-(3-((1R,5S,6R)-3-amino-5-(difluoromethyl)-2-oxa-4-azabicyclo[4.1.0]hept-3-en-5-yl)-4-chlorophenyl)-5-methoxypicolinamide], the values for the IC50 (in experiment [1]; against BACE; at Cathepsin D (Cat D)) were 0.0611 µM, 0.0209 µM and 190 µM, respectively.

`COc1cnc(C(=O)Nc2ccc(Cl)c([C@@]3(C(F)F)N=C(N)O[C@@H]4C[C@@H]43)c2)c(C)c1` [Example 101, N-(3-((1R,5S,6R)-3-amino-5-(difluoromethyl)-2-oxa-4-azabicyclo[4.1.0]hept-3-en-5-yl)-4-chlorophenyl)-5-methoxy-3-methylpicolinamide]: the half-inhibitory concentration (IC50) was found to be 0.0971 µM in experiment [1], 0.0598 µM at BACE and 258 µM on Cathepsin D (Cat D).

`NC1=N[C@@](c2cc(NC(=O)c3cnc(OCc4cocn4)cn3)ccc2Cl)(C(F)F)[C@H]2C[C@H]2O1` [Example 102, N-(3-((1R,5S,6R)-3-amino-5-(difluoromethyl)-2-oxa-4-azabicyclo[4.1.0]hept-3-en-5-yl)-4-chlorophenyl)-5-(oxazol-4-ylmethoxy)pyrazine-2-carboxamide]: the IC50 in experiment [1] came out at 0.0356 µM; on BACE, 0.013 µM; on Cathepsin D (Cat D), 592 µM.

Consider `COc1cnc(C(=O)Nc2ccc(F)c([C@@]3(C(F)F)N=C(N)O[C@@H]4C[C@@H]43)c2)nc1` [Example 103, N-(3-((1R,5S,6R)-3-amino-5-(difluoromethyl)-2-oxa-4-azabicyclo[4.1.0]hept-3-en-5-yl)-4-fluorophenyl)-5-methoxypyrimidine-2-carboxamide], for which the IC50 in experiment [1] was determined as 0.121 µM; on BACE, 0.0574 µM; at Cathepsin D (Cat D), 763 µM.

In the case of `COc1cnc(C(=O)Nc2ccc(Cl)c([C@@]3(C(F)F)N=C(N)O[C@@H]4C[C@@H]43)c2)nc1` [Example 104, N-(3-((1R,5S,6R)-3-amino-5-(difluoromethyl)-2-oxa-4-azabicyclo[4.1.0]hept-3-en-5-yl)-4-chlorophenyl)-5-methoxypyrimidine-2-carboxamide], the results for the IC50 (in experiment [1]; on BACE; at Cathepsin D (Cat D)) were 0.0873 µM, 0.0339 µM and 374 µM, respectively.

As for `NC1=N[C@@](c2cc(NC(=O)c3nn(C(F)F)cc3Cl)cc(F)c2F)(C(F)F)[C@H]2C[C@H]2O1` [Example 114, N-(3-((1R,5S,6R)-3-amino-5-(difluoromethyl)-2-oxa-4-azabicyclo[4.1.0]hept-3-en-5-yl)-4,5-difluorophenyl)-4-chloro-1-(difluoromethyl)-1H-pyrazole-3-carboxamide], the results for the IC50 (in experiment [1]; against BACE; at Cathepsin D (Cat D)) were 0.0098 µM, 0.0198 µM and 158 µM, respectively.

On to `NC1=N[C@@](CF)(c2cc(NC(=O)c3ccc(Cl)cn3)ccc2F)[C@@H]2C[C@@H]2O1` [Example 118, N-(3-((1S,5R,6S)-3-amino-5-(fluoromethyl)-2-oxa-4-azabicyclo[4.1.0]hept-3-en-5-yl)-4-fluorophenyl)-5-chloropicolinamide], for which the IC50 in experiment [1] is 1.56 µM; against BACE, 0.221 µM; at Cathepsin D (Cat D), 1280 µM.

In the case of `NC1=N[C@@](c2cc(NC(=O)c3ncc(Cl)cn3)ccc2F)(C(F)F)[C@H]2C[C@H]2O1` [Example 119, N-(3-((1R,5S,6R)-3-amino-5-(difluoromethyl)-2-oxa-4-azabicyclo[4.1.0]hept-3-en-5-yl)-4-fluorophenyl)-5-chloropyrimidine-2-carboxamide], the IC50 in experiment [1] is 0.0559 µM; at BACE, 0.0524 µM; at Cathepsin D (Cat D) it was 2990 µM.

In the case of `Cc1nc(OCC(F)(F)F)cnc1C(=O)Nc1ccc(F)c([C@@]2(C(F)F)N=C(N)O[C@@H]3C[C@@H]32)c1` [Example 120, N-(3-((1R,5S,6R)-3-amino-5-(difluoromethyl)-2-oxa-4-azabicyclo[4.1.0]hept-3-en-5-yl)-4-fluorphenyl)-3-methyl-5-(2,2,2-trifluoroethoxy)pyrazine-2-carboxamide], the IC50 was 0.05 µM in experiment [1], 0.247 µM on BACE and 351 µM on Cathepsin D (Cat D).

As to `Cc1cc(C(F)F)cnc1C(=O)Nc1ccc(Cl)c([C@@]2(CF)N=C(N)O[C@@H]3C[C@@H]32)c1` [Example 122, N-(3-((1R,5S,6R)-3-amino-5-(fluoromethyl)-2-oxa-4-azabicyclo[4.1.0]hept-3-en-5-yl)-4-chlorophenyl)-5-(difluoromethyl)-3-methylpicolinamide], the IC50 was found to be 0.099 µM in experiment [1], 0.0148 µM against BACE and 1070 µM on Cathepsin D (Cat D).

Take `Cc1cc(C(F)(F)F)cnc1C(=O)Nc1ccc(Cl)c([C@@]2(CF)N=C(N)O[C@@H]3C[C@@H]32)c1` [Example 125, N-(3-((1R,5S,6R)-3-amino-5-(fluoromethyl)-2-oxa-4-azabicyclo[4.1.0]hept-3-en-5-yl)-4-chlorophenyl)-3-methyl-5-(trifluoromethyl) picolinamide]: the results for the IC50 (in experiment [1]; against BACE; at Cathepsin D (Cat D)) were 0.0806 µM, 0.0086 µM and greater than 400 µM, respectively.

As to `Cc1cc(OC(F)F)cnc1C(=O)Nc1ccc(Cl)c([C@@]2(CF)N=C(N)O[C@@H]3C[C@@H]32)c1` [Example 126, N-(3-((1R,5S,6R)-3-amino-5-(fluoromethyl)-2-oxa-4-azabicyclo[4.1.0]hept-3-en-5-yl)-4-chlorophenyl)-5-(difluoromethoxy)-3-methylpicolinamide], the figures for the IC50 (in experiment [1]; on BACE; at Cathepsin D (Cat D)) were 0.0835 µM, 0.0146 µM and 1200 µM, respectively.

Regarding `COCc1cc(Cl)cnc1C(=O)Nc1ccc(Cl)c([C@@]2(CF)N=C(N)O[C@@H]3C[C@@H]32)c1` [Example 128, N-(3-((1R,5S,6R)-3-amino-5-(fluoromethyl)-2-oxa-4-azabicyclo[4.1.0]hept-3-en-5-yl)-4-chlorophenyl)-5-chloro-3-(methoxymethyl) picolinamide], the half-inhibitory concentration (IC50) in experiment [1] was 0.0508 µM; against BACE, 0.0161 µM; at Cathepsin D (Cat D) it was 1000 µM.

Take `NC1=N[C@@](c2cc(NC(=O)c3ncc(Cl)cc3F)ccc2F)(C(F)F)[C@H]2C[C@H]2O1` [Example 129]: the concentration for half-maximal inhibition (IC50) in experiment [1] stood at 0.0389 µM; at BACE, 0.0403 µM; at Cathepsin D (Cat D), 1280 µM.

Regarding `COc1cnc(C(=O)Nc2ccc(F)c([C@@]3(C(F)F)N=C(N)O[C@@H]4C[C@@H]43)c2)c(C)c1` [Example 131, N-(3-((1R,5S,6R)-3-amino-5-(difluoromethyl)-2-oxa-4-azabicyclo[4.1.0]hept-3-en-5-yl)-4-fluorophenyl)-5-methoxy-3-methylpicolinamide], the IC50 in experiment [1] came out at 0.185 µM; on BACE, 0.0809 µM; on Cathepsin D (Cat D) it was 342 µM.

With `Cc1cc(NC(=O)c2ncc(C#N)cc2Cl)cc([C@@]2(C(F)F)N=C(N)O[C@@H]3C[C@@H]32)c1F` [Example 133], the IC50 in experiment [1] came out at 0.023 µM; on BACE it was 0.0158 µM; at Cathepsin D (Cat D), 558 µM.

For `COc1cc(Cl)cnc1C(=O)Nc1cc(C)c(F)c([C@@]2(C(F)F)N=C(N)O[C@@H]3C[C@@H]32)c1` [Example 134, N-(3-((1R,5S,6R)-3-amino-5-(difluoromethyl)-2-oxa-4-azabicyclo[4.1.0]hept-3-en-5-yl)-4-fluoro-5-methylphenyl)-5-chloro-3-methoxypicolinamide], the IC50 amounted to 0.131 µM in experiment [1], 0.0604 µM against BACE and 1110 µM on Cathepsin D (Cat D).

As to `Cc1cc(NC(=O)c2ncc(Cl)cc2Cl)cc([C@@]2(C(F)F)N=C(N)O[C@@H]3C[C@@H]32)c1F` [Example 135, N-(3-((1R,5S,6R)-3-amino-5-(difluoromethyl)-2-oxa-4-azabicyclo[4.1.0]hept-3-en-5-yl)-4-fluoro-5-methylphenyl)-3,5-dichloropicolinamide], the IC50 in experiment [1] amounted to 0.0256 µM; on BACE it was 0.0199 µM; on Cathepsin D (Cat D) it was 494 µM.

Turning to `Cc1cc(C#N)cnc1C(=O)Nc1cc(F)c(Cl)c([C@@]2(CF)N=C(N)O[C@@H]3C[C@@H]32)c1` [Example 138, N-(3-((1R,5S,6R)-3-amino-5-(fluoromethyl)-2-oxa-4-azabicyclo[4.1.0]hept-3-en-5-yl)-4-chloro-5-fluorophenyl)-5-cyano-3-methylpicolinamide], the IC50 in experiment [1] was 0.0362 µM; at BACE, 0.0151 µM; on Cathepsin D (Cat D) it was 662 µM.

Turning to `COc1cnc(C(=O)Nc2cc(F)c(F)c([C@@]3(CF)N=C(N)O[C@@H]4C[C@@H]43)c2)cn1` [Example 143, N-(3-((1R,5S,6R)-3-amino-5-(fluoromethyl)-2-oxa-4-azabicyclo[4.1.0]hept-3-en-5-yl)-4,5-difluorophenyl)-5-methoxypyrazine-2-carboxamide], the IC50 in experiment [1] came to 0.125 µM; against BACE, 0.0221 µM; at Cathepsin D (Cat D) it was 529 µM.

Take `COc1cnc(C(=O)Nc2cc(F)c(F)c([C@]3(CF)N=C(N)O[C@H]4C[C@H]43)c2)cn1` [Example 144, N-(3-((1S,5R,6S)-3-amino-5-(fluoromethyl)-2-oxa-4-azabicyclo[4.1.0]hept-3-en-5-yl)-4,5-difluorophenyl)-5-methoxypyrazine-2-carboxamide]: the IC50 in experiment [1] is greater than 40 µM; against BACE, 4.62 µM; on Cathepsin D (Cat D) it was 1340 µM.

Regarding `CC(C)Oc1cnc(C(=O)Nc2ccc(F)c([C@@]3(C(F)F)N=C(N)O[C@@H]4C[C@@H]43)c2)cn1` [Example 147, N-(3-((1R,5S,6R)-3-amino-5-(difluoromethyl)-2-oxa-4-azabicyclo[4.1.0]hept-3-en-5-yl)-4-fluorophenyl)-5-isopropoxypyrazine-2-carboxamide], the IC50 in experiment [1] stood at 0.732 µM; at BACE, 1 µM; on Cathepsin D (Cat D) it was 706 µM.
